In publication PMC10377091 (Brain Sciences, 2023):
Read-outs that look alike come from different tables or passages of the source. One block for each compound: values may come before it.

Experiments:
hiPS-BCECs = assay: Cytotoxicity, CellTiter-Glo 2.0 Cell Viability Assay; conditions: 1% SDS (positive control), 4 h incubation, luminescence; mean ± SEM
Description: Cytotoxicity of phoenixin-14 against hiPS-BCECs was evaluated for three concentrations (1, 10, and 100 nMol) after 4 h incubation with untreated (negative control) and 1% Sodium Dodecyl Sulfate (SDS, Carl Roth, Karlsruhe, Germany)-treated (positive control) hiPS-BCECs as controls. After treatment, a CellTiter-Glo® 2.0 Cell Viability Assay (Promega, Mannheim, Germany) was performed according to the manufacturer’s instructions. Luminescence was measured with an Infinite M200 fluorescence reader (Tecan Group, Männedorf, Switzerland).
Cytotoxicity studies were performed in triplicate and three independent biological replicates. Transport studies were performed in duplicate and repeated three times. […] When feasible based on the number of values, data were tested for normality using the Kolmogorov–Smirnov test; otherwise, they were assumed to be non-normally distributed. Results from the toxicity studies were analyzed using Kruskal–Wallis test and significance values were adjusted according to Bonferroni correction regarding multiple testing. To compare the results of the transport studies, an unpaired t-test was applied. Data are presented as mean ± SEM. The level of significance was defined as p < 0.05 (*).

[1] = tested on: hiPSC-BCECs (brain capillary-like endothelial cells derived from human induced-pluripotent stem cells); parameters: method as in PMID 28344002; conditions: control substances, previously published experiments in the hiPSC-based BBB model; mean ± SEM; cited from earlier work
[2] = parameters: method as in PMID 34575559; conditions: in vivo in mice; cited from earlier work
[3] = tested on: hiPSC-BCECs (brain capillary-like endothelial cells derived from human induced-pluripotent stem cells); assay: Transport assay across hiPSC-derived BBB mono-culture model (hiPS-BCEC); type: in vitro ADME; conditions: for clearance value: mean ± SEM; for permeability coefficient (PC): apical to basolateral, 4 h, 37 °C, ELISA
Description: Human induced-pluripotent stem cells (hiPSC; IMR90-4, WiCell Research Institute, Madison, WI, USA) were cultured in mTeSRTM1 medium (StemCell Technologies, Vancouver, BC, Canada). The hiPSC-derived brain capillary-like endothelial cell (hiPS-BCEC) BBB model was built as previously described. In brief, using Accutase® solution (Sigma-Aldrich, Saint Louis, MO, USA), hiPSCs were dissociated into single cells and seeded in mTeSRTM1 medium (StemCell Technologies Inc.) including […]-27632 dihydrochloride (Tocris, Bristol, UK) on Matrigel® Growth Factor Reduced (GFR) Basement Membrane Matrix, Phenol Red-free (Corning, Corning, NY, USA) coated 6-well plates at a density of 7.5 × 103 hiPSC/cm^2. […] For the next two days, cells were treated with EC++ medium, consisting of human endothelial-[…], Thermo Fisher Scientific) supplemented with 200 × diluted serum-free B-27TM supplement (Thermo Fisher Scientific), 20 ng/mL hbFGF (PeproTech, Cranbury, NJ, USA), and 10 μM all-trans RA (Sigma-Aldrich). No medium change occurred on day 7. Using Accutase®, cells were seeded in EC++ medium at a density of 1 × 106 hiPSC/cm^2 onto 24-well ThinCert® cell culture inserts, with a pore size of 0.4 μm (Greiner BioOne, Frickenhausen, Germany), coated with 400 μg/mL collagen IV (Sigma-Aldrich) and supplemented with 100 μg/mL fibronectin (Thermo Fisher Scientific). Cells were cultured in EC++ medium for 24 h, followed by treatment with EC medium ([…] hbFGF and RA) for another 24 h, yielding purified hiPS-BCECs. Transport assays were performed in cell culture inserts (24-well format) on an orbital shaker (Edmund Buhler GmbH, Bodelshausen, Germany) at 100 rpm, 37 °C, 95% humidity, and 5% CO2. […] Stock solutions of commercially purchased phoenixin-14 (079-01, Phoenix Pharmaceuticals, Inc., Karlsruhe, Germany,) were diluted with EC medium to the desired concentrations (1 nMol or 10 nMol). In total, 200 μL of the final concentrations of phoenixin-14 were applied to the apical side of the BBB model. The basolateral side was supplied with 800 μL of EC medium. The transport was evaluated with a total incubation time of 4 h. Half-hourly, the basolateral medium was collected and replaced with fresh EC medium. As a control, the substances were incubated on empty collagen IV-/fibronectin-coated inserts to exclude major phoenixin-14 adsorption on the membrane. […] The concentration of phoenixin-14 in the apical and basolateral compartment was measured using a commercially purchased ELISA Kit (EK-079-01, Phoenix Pharmaceuticals). The intra-assay variability was 9.7%. The sensitivity for phoenixin was 0.07 ng/mL, while the linear detection ranged from 0.36 to 3.26 ng/mL (Phoenix Pharmaceuticals). […] Data are presented as mean ± SEM.

Compound: CCCCCCCCCCCCOS(=O)(=O)[O-].[Na+] [SDS, Sodium Dodecyl Sulfate]
cell viability in comparison to untreated hiPS-BCECs (hiPS-BCECs): 0.37 ± 0.02%

Compound: Cn1c(=O)c2c(ncn2C)n(C)c1=O [caffeine]
permeability coefficient (PC) [1]: 51.06 ± 9.90 µm/min
clearance value [2]: 1.111e-05 mL/min

passage across the hiPSC-derived BBB model ([3]; 1 and 10 nMol, phoenixin-14 alone, in vitro): did not cross
clearance value ([3]; 1 nMol phoenixin-14, hiPS-BCEC mono-culture, resulting from PC): 6.83e-07 ± 1.39e-07 mL/min
permeability coefficient (PC) ([3]; 10 nMol phoenixin-14, hiPS-BCEC mono-culture, experiment 1 of 3): 0.059 µm/min
permeability coefficient (PC) ([3]; 10 nMol phoenixin-14, hiPS-BCEC mono-culture, experiment 2 of 3): 0.056 µm/min
permeability coefficient (PC) ([3]; 10 nMol phoenixin-14, hiPS-BCEC mono-culture, experiment 3 of 3): 0.019 µm/min
clearance value ([3]; 10 nMol phoenixin-14, hiPS-BCEC mono-culture, based on PC): 1.779e-06 ± 8.17e-07 mL/min
Compound: H-DVQPPGLKVWSDPF-NH2 [phoenixin-14]
